According to patent publication US11590089B2, “Beta-2 selective adrenergic receptor agonists” (The Board of Trustees of the Leland Stanford Junior …, priority 2017, dated 2023):
Structures can show the parent of a compound that is named as a salt. Where two headings read alike, the source gives them in different places.

Tests used:
[1] = target: T1, β1-AR (Homo sapiens, UniProt P08588); assay: radioligand binding assay, β1-AR, [3H]CGP12177; details: radioligand [3H]CGP12177; values given as a range are from screening experiments with a low number of repeats; read-out: Ki β1-AR [3H]CGP12177
Procedure: (§1) The binding affinities of exemplary compounds of interest at β1AR and β2AR were evaluated in a binding assay.
Target sequence in this assay (P08588 whole entry): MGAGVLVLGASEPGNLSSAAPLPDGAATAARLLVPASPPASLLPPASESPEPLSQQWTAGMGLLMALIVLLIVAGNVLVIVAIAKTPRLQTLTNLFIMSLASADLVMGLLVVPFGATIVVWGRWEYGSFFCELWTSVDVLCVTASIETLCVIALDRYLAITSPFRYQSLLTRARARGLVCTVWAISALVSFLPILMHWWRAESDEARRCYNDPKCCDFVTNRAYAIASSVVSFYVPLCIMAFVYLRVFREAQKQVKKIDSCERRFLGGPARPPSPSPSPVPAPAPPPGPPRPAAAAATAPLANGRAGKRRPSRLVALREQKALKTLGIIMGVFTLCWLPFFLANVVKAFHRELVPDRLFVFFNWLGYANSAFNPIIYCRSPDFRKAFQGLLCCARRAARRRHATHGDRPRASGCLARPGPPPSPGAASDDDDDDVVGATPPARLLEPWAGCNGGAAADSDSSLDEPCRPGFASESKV

[2] = target: T2, β2-AR (Homo sapiens, UniProt P07550); assay: radioligand binding assay, β2-AR, [3H]CGP12177; details: radioligand [3H]CGP12177; values given as a range are from screening experiments with a low number of repeats; read-out: Ki β2-AR [3H]CGP12177
Procedure: as §1
Target sequence in this assay (P07550 whole entry): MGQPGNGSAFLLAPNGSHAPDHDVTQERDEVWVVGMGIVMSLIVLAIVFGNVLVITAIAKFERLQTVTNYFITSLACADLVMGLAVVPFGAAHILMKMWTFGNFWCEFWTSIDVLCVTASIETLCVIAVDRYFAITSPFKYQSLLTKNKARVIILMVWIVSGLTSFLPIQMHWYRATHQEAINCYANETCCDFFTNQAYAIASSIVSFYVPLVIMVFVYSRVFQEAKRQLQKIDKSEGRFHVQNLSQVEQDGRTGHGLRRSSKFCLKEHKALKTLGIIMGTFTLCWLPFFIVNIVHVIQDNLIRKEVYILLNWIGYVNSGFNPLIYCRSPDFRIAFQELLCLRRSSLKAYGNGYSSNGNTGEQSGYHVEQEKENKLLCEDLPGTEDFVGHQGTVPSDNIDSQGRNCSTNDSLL

[3] = target: T3, •1A-AR (Homo sapiens, UniProt P35348); assay: radioligand binding assay, α1A-AR, [3H]prazosin
T3 sequence (P35348 1-466): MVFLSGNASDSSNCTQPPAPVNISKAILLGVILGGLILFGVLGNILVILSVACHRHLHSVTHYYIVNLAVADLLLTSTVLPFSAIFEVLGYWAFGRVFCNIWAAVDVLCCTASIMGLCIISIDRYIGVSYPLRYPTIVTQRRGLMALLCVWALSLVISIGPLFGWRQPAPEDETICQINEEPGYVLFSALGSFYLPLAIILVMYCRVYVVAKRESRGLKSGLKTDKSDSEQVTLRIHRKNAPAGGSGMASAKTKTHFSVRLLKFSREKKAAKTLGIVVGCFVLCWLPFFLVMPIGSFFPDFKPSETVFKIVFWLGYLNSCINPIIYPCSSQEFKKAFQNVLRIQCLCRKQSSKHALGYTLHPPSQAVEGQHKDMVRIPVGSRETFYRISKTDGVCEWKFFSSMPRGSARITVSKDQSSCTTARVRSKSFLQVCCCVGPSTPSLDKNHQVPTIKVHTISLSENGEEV

[4] = target: T4, α2A-AR (Homo sapiens, UniProt P08913); assay: radioligand binding assay, α2A-AR, [3H]RX821002; details: radioligand [3H]RX821002; values given as a range are from screening experiments with a low number of repeats
T4 sequence (P08913 1-465): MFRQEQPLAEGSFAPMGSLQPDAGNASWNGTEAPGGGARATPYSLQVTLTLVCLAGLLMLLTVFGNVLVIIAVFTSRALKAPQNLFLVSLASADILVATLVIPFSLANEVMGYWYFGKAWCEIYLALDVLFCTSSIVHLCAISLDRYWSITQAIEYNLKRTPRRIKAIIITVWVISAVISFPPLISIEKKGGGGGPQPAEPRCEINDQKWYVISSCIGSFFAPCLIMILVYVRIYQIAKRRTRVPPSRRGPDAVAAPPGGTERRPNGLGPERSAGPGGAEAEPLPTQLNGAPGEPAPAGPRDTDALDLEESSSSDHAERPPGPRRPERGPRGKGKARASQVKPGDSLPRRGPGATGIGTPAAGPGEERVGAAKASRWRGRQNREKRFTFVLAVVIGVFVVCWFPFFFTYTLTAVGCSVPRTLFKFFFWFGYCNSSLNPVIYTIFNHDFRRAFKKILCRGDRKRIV

[5] = target: T1, β1-AR; assay: β-arrestin-2 recruitment assay at β1-AR; assay type: cell-based; details: for EC50: n.d. = could not be determined because of lack of activity, ranges from screening experiments with a low number of repeats, read-out: β-arrestin-2 recruitment β1-AR EC50; for β-arrestin-2 recruitment β1-AR Emax: relative to norepinephrine
Target sequence in this assay (P08588 whole entry): as the sequence (P08588 whole entry) above
Target sequence in this assay (P32121 whole entry partner): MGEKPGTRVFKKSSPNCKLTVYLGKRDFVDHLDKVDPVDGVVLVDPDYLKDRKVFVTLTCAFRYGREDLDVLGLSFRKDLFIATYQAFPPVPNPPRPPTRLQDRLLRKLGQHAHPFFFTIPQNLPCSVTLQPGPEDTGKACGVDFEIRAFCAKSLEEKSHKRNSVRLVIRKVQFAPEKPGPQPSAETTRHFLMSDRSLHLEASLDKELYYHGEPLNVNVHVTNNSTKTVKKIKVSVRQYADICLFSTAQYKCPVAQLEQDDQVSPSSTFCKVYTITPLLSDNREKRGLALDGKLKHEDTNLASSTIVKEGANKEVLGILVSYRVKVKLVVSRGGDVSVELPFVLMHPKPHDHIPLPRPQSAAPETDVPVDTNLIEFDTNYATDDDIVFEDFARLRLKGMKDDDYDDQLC

[6] = target: T2, β2-AR; assay: β-arrestin-2 recruitment assay at β2-AR; assay type: cell-based; details: for EC50: ranges from screening experiments with a low number of repeats; for β-arrestin-2 recruitment β2-AR Emax: relative to norepinephrine
Target sequence in this assay (P07550 whole entry): as the sequence (P07550 whole entry) above
Target sequence in this assay (P32121 whole entry partner): as the sequence (P32121 whole entry partner) above

[7] = n.d. = could not be determined because of lack of activity, read-out: β-arrestin-2 recruitment β2-AR EC50
[8] = β-arrestin-2 recruitment β2-AR EC50, n.d. = could not be determined because of lack of activity

Compound	Ki [1]	Ki [2]	Ki [3]	Ki [4]	EC50 [5]	β-arrestin-2 recruitment β1-AR Emax [5]	EC50 [6, 7]	β-arrestin-2 recruitment β2-AR Emax [6]	EC50 [6, 8]	Ki ([3]; radioligand [3H]prazosin, values given as a range are from screening experiments with a low number of repeats, read-out: Ki •1A-AR [3H]prazosin)
Oc1ccc2c(c1O)CC[C@@H](NCCCF)[C@@H]2O [LM 75, (5R,6R)-6-((3-fluoropropyl)amino)-5,6,7,8-tetrahydronaphthalene-1,2,5-triol]	7.5 µM	0.097 µM	23 µM	18 µM	10 µM	90 % norepinephrine	0.025 µM	111 % norepinephrine	–	–
Oc1ccc2c(c1O)CC[C@@H](NCC1CC(F)(F)C1)[C@@H]2O [LM 112, (5R,6R)-6-(((3,3-difluorocyclobutyl)methyl)amino)-5,6,7,8-tetrahydronaphthalene-1,2,5-triol]	5 to 12 µM	0.025 to 0.07 µM	5 to 8 µM	8 to 15 µM	6 to 14 µM	45 % norepinephrine	0.01 to 0.02 µM	124 % norepinephrine	–	–
Oc1ccc2c(c1O)CC[C@@H](NCC1CCC1)[C@@H]2O [LM 110, (5R,6R)-6-((cyclobutylmethyl)amino)-5,6,7,8-tetrahydronaphthalene-1,2,5-triol]	51 µM	0.17 µM	4 µM	9.9 µM	22 µM	25 % norepinephrine	–	116 % norepinephrine	0.079 µM	–
N[C@@H]1CCc2c(ccc(O)c2O)[C@H]1O [AS446, (5R,6R)-6-amino-5,6,7,8-tetrahydronaphthalene-1,2,5-triol×TFA]	16 µM	0.68 µM	18 µM	15 µM	18 µM	56 % norepinephrine	–	107 % norepinephrine	0.1 µM	–
Oc1ccc2c(c1O)CC[C@@H](NCCF)[C@@H]2O [LM 80, (5R,6R)-6-((2-fluoroethyl)amino)-5,6,7,8-tetrahydronaphthalene-1,2,5-triol]	7 µM	0.28 µM	–	30 µM	3 µM	81 % norepinephrine	0.066 µM	110 % norepinephrine	–	> 90 µM
